Measured values published in the supplement of paper PMC10307832.

What was measured:
Experiment in all cases: relative viability (nuclei count vs DMSO), 5 days (fraction); higher = more cells survive
Entinostat + Foretinib = compound: Nc1ccccc1NC(=O)c1ccc(CNC(=O)OCc2cccnc2)cc1 [Entinostat] + COc1cc2c(Oc3ccc(NC(=O)C4(C(=O)Nc5ccc(F)cc5)CC4)cc3F)ccnc2cc1OCCCN1CCOCC1 [Foretinib] (partner 0.25 µM)
Summary of the method: (§1)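 Lung cancer cell lines were pin-tool dosed in 1536-well plates on the day after seeding, with either a lone drug or a fixed anchor-drug dose plus five library-drug doses (not always all listed) in √10 steps. Nuclei were counted on 4× images after 5 days. Relative viability is the ratio of treated-well to vehicle-well nuclei counts, with each value a median of duplicate plates.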

SGI-1776 + OSI-027 = compound: CN1CCC(CNc2ccc3ncc(-c4cccc(OC(F)(F)F)c4)n3n2)CC1 [SGI-1776] + COc1cccc2cc(-c3nc([C@H]4CC[C@H](C(=O)O)CC4)n4ncnc(N)c34)[nH]c12 [OSI-027] (partner 0.5 µM)
Summary of the method: as §1

[1] = compound: C1COCCN1C2=NC(=NC3=C2OC4=C3C=CC=N4)C5=CC(=CC=C5)NC(=O)C6=CN=C(C=C6)N + N=C(N)NC(=N)NCCc1ccccc1 [Phenformin] (partner 250 µM)
Summary of the method: as §1

[2] = compound: C1COCCN1C2=NC(=NC3=C2OC4=C3C=CC=N4)C5=CC(=CC=C5)NC(=O)C6=CN=C(C=C6)N + O=C(CCCCCCC(=O)Nc1ccccc1)NO [Vorinostat] (partner 1 µM)
Summary of the method: as §1

Cell Line: UMC-11
- relative viability (Entinostat + Foretinib; first compound 0.02 µM): 1.22
- relative viability (Entinostat + Foretinib; first compound 0.06325 µM): 1.08
- relative viability (Entinostat + Foretinib; first compound 0.2 µM): 0.834
- relative viability (Entinostat + Foretinib; first compound 0.6325 µM): 0.273
- relative viability (Entinostat + Foretinib; first compound 2 µM): 0.201
- relative viability (SGI-1776 + OSI-027; first compound 0.08 µM): 0.493
- relative viability (SGI-1776 + OSI-027; first compound 0.8 µM): 0.466
- relative viability (SGI-1776 + OSI-027; first compound 2.53 µM): 0.396
- relative viability (SGI-1776 + OSI-027; first compound 8 µM): 0.278
- relative viability ([1]; first compound 0.02 µM): 0.302
- relative viability ([1]; first compound 0.06325 µM): 0.327
- relative viability ([1]; first compound 0.2 µM): 0.33
- relative viability ([1]; first compound 0.6325 µM): 0.308
- relative viability ([1]; first compound 2 µM): 0.204
- relative viability ([2]; first compound 0.02 µM): 0.415
- relative viability ([2]; first compound 0.06325 µM): 0.382
- relative viability ([2]; first compound 0.2 µM): 0.352
- relative viability ([2]; first compound 0.6325 µM): 0.369
- relative viability ([2]; first compound 2 µM): 0.264
